According to patent US20240366598A1, “GLUCOSE-DEPENDENT INSULINOTROPIC POLYPEPTIDE RECEPTOR ANTAGONISTS AND USES THEREOF” (Pfizer Inc., priority 2023, published 2024):
Structures can show the parent of a compound that is named as a salt.

Target: T1, human Glucose-dependent Insulinotropic Polypeptide Receptor (hGIPR) (Homo sapiens, UniProt P48546)
T1 sequence (P48546 22-466): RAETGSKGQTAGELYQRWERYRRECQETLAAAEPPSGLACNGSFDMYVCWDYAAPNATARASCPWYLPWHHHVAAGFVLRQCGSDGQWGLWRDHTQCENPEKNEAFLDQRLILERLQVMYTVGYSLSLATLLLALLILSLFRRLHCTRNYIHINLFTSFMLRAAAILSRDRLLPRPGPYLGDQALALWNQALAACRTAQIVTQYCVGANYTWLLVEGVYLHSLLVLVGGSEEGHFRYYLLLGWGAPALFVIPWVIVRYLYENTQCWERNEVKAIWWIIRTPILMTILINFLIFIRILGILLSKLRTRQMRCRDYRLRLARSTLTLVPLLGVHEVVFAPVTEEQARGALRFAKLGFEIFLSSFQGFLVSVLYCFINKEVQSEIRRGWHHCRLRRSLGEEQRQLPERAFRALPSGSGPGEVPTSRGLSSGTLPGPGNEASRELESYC
Experiment: Functional in vitro GIPR antagonist potency assay (cAMP HTRF, CHO-K1 cells stably expressing hGIPR, hGIP stimulation at about EC80)
Format: cell-based
Conditions: geometric mean, hGIP at estimated EC80, examples marked ^2: overall geometric mean of multiple forms (including salts) tested
How it was run: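 CHO-K1 cells expressing hGIPR (2,000 per well) in HBSS/HEPES/0.1% BSA with 200 μM IBMX were preincubated 2 h at 37 °C with an 11-point compound series (0.5% DMSO). hGIP at about EC80 was then added for 30 min, and cAMP was read by HTRF (665/620 nm). Data were normalized between hGIP alone and full antagonism by a reference antagonist at 80 μM.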

| IC50 | Structure (SMILES) |
| --- | --- |
| 83 nM | Cc1cc(C(=O)O)cc(-c2ccc(NC(=O)[C@H]3CCCN3C(=O)Nc3ccc(C(C)C)cc3)cc2)c1 [Example 50, 5-methyl-4′-[(1-{[4-(propan-2-yl)phenyl]carbamoyl}-D-prolyl)amino][1,1′-biphenyl]-3-carboxylic acid] |
| 9.7 nM | Cc1cc(NC(=O)N2CCC[C@@H]2C(=O)Nc2ccc(-c3ccc(C(=O)O)cc3)cc2)ncc1C(C)C [Example 146, 4′-[(1-{[4-methyl-5-(propan-2-yl)pyridin-2-yl]carbamoyl}-D-prolyl)amino][1,1′-biphenyl]-4-carboxylic acid, trifluoroacetate salt] |
| 840 nM | CC(C)c1ncc(NC(=O)N2CCC[C@@H]2C(=O)Nc2ccc(-c3ccc(C(=O)O)cc3)cc2)cn1 [Example 112, 4′-[(1-{[2-(propan-2-yl)pyrimidin-5-yl]carbamoyl}-D-prolyl)amino][1,1′-biphenyl]-4-carboxylic acid] |
| 240 nM | CC(C)c1ccc(NC(=O)N2CCC[C@@H]2C(=O)Nc2ccc(-c3cccc(C(N)=O)c3)cc2)cc1 [Example 148, (2R)-N^2-(3′-carbamoyl[1,1′-biphenyl]-4-yl)-N^1-[4-(propan-2-yl)phenyl]pyrrolidine-1,2-dicarboxamide] |
| 19 nM | CC(C)(C)c1ccc(CNC(=O)N2CCC[C@@H]2C(=O)Nc2ccc(-c3ccc(C(=O)O)cc3)cc2)cc1 [Example 125, 4′-[(1-{[(4-tert-butylphenyl)methyl]carbamoyl}-D-prolyl)amino][1,1′-biphenyl]-4-carboxylic acid] |
| 11 nM | O=C(O)[C@@H]1CCc2nc(NC(=O)[C@H]3CCCN3C(=O)Nc3ccc(C(F)(F)F)c(F)c3)ccc2C1 (single isomer, unassigned) [Example 221, 2-[(1-{[3-fluoro-4-(trifluoromethyl)phenyl]carbamoyl}-D-prolyl)amino]-5,6,7,8-tetrahydroquinoline-6-carboxylic acid, DIAST-2] |
| 180 nM | Cc1cc(NC(=O)[C@H]2CCCN2C(=O)Nc2ccc(C(C)C)cc2)cc2ccc(C(=O)O)nc12 [Example 11, 8-methyl-6-[(1-{[4-(propan-2-yl)phenyl]carbamoyl}-D-prolyl)amino]quinoline-2-carboxylic acid, trifluoroacetate salt] |
| 53 nM | Cc1cc(NC(=O)N2CCC[C@@H]2C(=O)Nc2ccc(-c3ccc(C(=O)O)cn3)cc2)ccc1C(C)C [Example 180, 6-{4-[(1-{[3-methyl-4-(propan-2-yl)phenyl]carbamoyl}-D-prolyl)amino]phenyl}pyridine-3-carboxylic acid] |
| 7.3 nM | Cc1cc(-c2ccc(NC(=O)[C@H]3CCCN3C(=O)Nc3ccc(C(C)C)cc3)cc2)ccc1C(=O)O [Example 40, 3-methyl-4′-[(1-{[4-(propan-2-yl)phenyl]carbamoyl}-D-prolyl)amino][1,1′-biphenyl]-4-carboxylic acid] |
| 44 nM | Cc1cc(NC(=O)N2CCC[C@@H]2C(=O)Nc2ccc3cc(C(=O)O)ccc3c2)ccc1C(C)C [Example 162, 6-[(1-{[3-methyl-4-(propan-2-yl)phenyl]carbamoyl}-D-prolyl)amino]naphthalene-2-carboxylic acid] |
| 74 nM | CC(C)c1ccc(NC(=O)N2CCC[C@@H]2C(=O)Nc2ccc(-c3ccc(C(=O)O)cn3)cc2)cc1 [Example 2, 6-{4-[(1-{[4-(Propan-2-yl)phenyl]carbamoyl}-D-prolyl)amino]phenyl}pyridine-3-carboxylic acid] |
| 12 nM | O=C(O)c1ccc(-c2ccc(NC(=O)[C@H]3CCCN3C(=O)NCc3ccc(Cl)c(Cl)c3)cc2)cc1 [Example 116, 4′-[(1-{[(3,4-dichlorophenyl)methyl]carbamoyl}-D-prolyl)amino][1,1′-biphenyl]-4-carboxylic acid] |
| 67 nM | O=C(O)c1ccc(-c2ccc(NC(=O)[C@H]3CCCN3C(=O)Nc3ccc(C4CC4)cc3F)cc2)cc1 [Example 140, 4′-({1-[(4-cyclopropyl-2-fluorophenyl)carbamoyl]-D-prolyl}amino)[1,1′-biphenyl]-4-carboxylic acid] |
| 14 nM | Cc1nc(C(=O)O)ccc1-c1ccc(NC(=O)[C@H]2CCCN2C(=O)NCc2ccc(C(F)(F)F)cc2)cc1 [Example 206, 6-methyl-5-(4-{[1-{{[4-(trifluoromethyl)phenyl]methyl}carbamoyl)-D-prolyl]amino}phenyl)pyridine-2-carboxylic acid] |
| 86 nM | Cc1cc(NC(=O)[C@H]2CCCN2C(=O)Nc2ccc(C(C)C)cc2)cnc1-c1ccc(C(=O)O)cc1 [Example 150, 4-{3-methyl-5-[(1-{[4-(propan-2-yl)phenyl]carbamoyl}-D-prolyl)amino]pyridin-2-yl}benzoic acid] |
| 29 nM | O=C(O)c1ccc(-c2ccc(NC(=O)[C@H]3CCCN3C(=O)Nc3ccc(C4(C(F)(F)F)CC4)cc3)cc2)cn1 [Example 197, 5-(4-{[1-({4-[1-(trifluoromethyl)cyclopropyl]phenyl}carbamoyl)-D-prolyl]amino}phenyl)pyridine-2-carboxylic acid] |
| 10 nM | O=C(O)c1ccc(-c2ccc(NC(=O)[C@H]3CCCN3C(=O)NCc3ccc(C(F)(F)F)cc3)cc2)cc1 [Example 157, 4′-{[1-({[4-(trifluoromethyl)phenyl]methyl}carbamoyl)-D-prolyl]amino}[1,1′-biphenyl]-4-carboxylic acid] |
| 11 nM | CC(C)c1ccc(NC(=O)N2CCC[C@@H]2C(=O)Nc2ccc3c(n2)CC[C@@H](C(=O)O)C3)cc1F (single isomer, unassigned) [Example 229, 2-[(1-{[3-fluoro-4-(propan-2-yl)phenyl]carbamoyl}-D-prolyl)amino]-5,6,7,8-tetrahydroquinoline-6-carboxylic acid, trifluoroacetate salt, DIAST-2] |
| 93 nM | O=C(O)c1ccc(-c2ccc(NC(=O)[C@H]3CCCN3C(=O)NCc3ccc(C(F)(F)F)cc3Cl)cc2)cc1 [Example 139, 4′-{[1-({[2-chloro-4-(trifluoromethyl)phenyl]methyl}carbamoyl)-D-prolyl]amino}[1,1′-biphenyl]-4-carboxylic acid] |
| 5.7 nM | COc1cc(-c2ccc(NC(=O)[C@H]3CCCN3C(=O)Nc3ccc(C(C)C)c(C)c3)cc2)ccc1C(=O)O [Example 30, 3-Methoxy-4′-[(1-{[3-methyl-4-(propan-2-yl)phenyl]carbamoyl}-D-prolyl)amino][1,1′-biphenyl]-4-carboxylic acid] |
| 7.6 nM | O=C(O)c1ccc(-c2ccc(NC(=O)[C@H]3CCCN3C(=O)Nc3ccc(C(F)(F)F)c(Cl)c3)cc2)cn1 [Example 55, 5-{4-[(1-{[3-chloro-4-(trifluoromethyl)phenyl]carbamoyl}-D-prolyl)amino]phenyl}pyridine-2-carboxylic acid] |
| 91 nM | Cc1cc(NC(=O)N2CCC[C@@H]2C(=O)Nc2ccc(-c3ccc(C(=O)O)nc3)cn2)ccc1C(C)C [Example 201, ammonium 6′-[(1-{[3-methyl-4-(propan-2-yl)phenyl]carbamoyl}-D-prolyl)amino][3,3′-bipyridine]-6-carboxylate] |
| 44 nM | CC(C)c1ccc(NC(=O)N2CCC[C@@H]2C(=O)Nc2ccc3cc(C(=O)O)ccc3c2)cc1F [Example 152, 6-[(1-{[3-fluoro-4-(propan-2-yl)phenyl]carbamoyl}-D-prolyl)amino]naphthalene-2-carboxylic acid] |
| 49 nM | Cc1nc(C(=O)O)ccc1-c1ccc(NC(=O)[C@H]2CCCN2C(=O)Nc2ccc(C(F)(F)F)cc2)cc1 [Example 169, 6-methyl-5-{4-[(1-{[4-(trifluoromethyl)phenyl]carbamoyl}-D-prolyl)amino]phenyl}pyridine-2-carboxylic acid] |
| 21 nM | Cc1cc(C(=O)O)ccc1-c1ccc(NC(=O)[C@H]2CCCN2C(=O)Nc2ccc(C(C)C)cc2)cn1 [Example 60, 3-methyl-4-{5-[(1-{[4-(propan-2-yl)phenyl]carbamoyl}-D-prolyl)amino]pyridin-2-yl}benzoic acid] |
| 51 nM | O=C(O)c1cccc(-c2ccc(NC(=O)[C@H]3CCCN3C(=O)NCc3ccc(C(F)(F)F)c(F)c3)nc2)c1 [Example 223, 3-(6-{[1-({[3-fluoro-4-(trifluoromethyl)phenyl]methyl}carbamoyl)-D-prolyl]amino}pyridin-3-yl)benzoic acid] |
| 16 nM | Cc1cc(C(=O)O)ccc1-c1ccc(NC(=O)[C@H]2CCCN2C(=O)Nc2ccc(C(C)C)cc2)nc1 [Example 171, 3-methyl-4-{6-[(1-{[4-(propan-2-yl)phenyl]carbamoyl}-D-prolyl)amino]pyridin-3-yl}benzoic acid] |
| 26 nM | CC(C)c1ccc(NC(=O)N2CCC[C@@H]2C(=O)Nc2ccc(-c3ccc(C(=O)O)cc3)cc2)c(F)c1 [Example 117, 4′-[(1-{[2-fluoro-4-(propan-2-yl)phenyl]carbamoyl}-D-prolyl)amino][1,1′-biphenyl]-4-carboxylic acid] |
| 21 nM | O=C(O)c1ccc(-c2ccc(NC(=O)[C@H]3CCCN3C(=O)NCc3cc(Cl)cc(Cl)c3)cc2)cc1 [Example 113, 4′-[(1-{[(3,5-dichlorophenyl)methyl]carbamoyl}-D-prolyl)amino][1,1′-biphenyl]-4-carboxylic acid] |
